Where a SMILES comes first, the peptide text is derived from it. [ ]: non-standard residue; d: D form. Dab = NCC[C@H](N)C(=O)O; Dap = NC[C@H](N)C(=O)O
Experiments:
[1] = test system: human red blood cells; test: Hemolytic activity; format: cell-based; details: for HC50: pH 7.4
[2] = RP-HPLC temperature profiling, self-association; format: physicochemical; details: temperature at which maximum retention time is observed over 5–77 °C, Zorbax 300 SB-C8, 0.5% acetonitrile/min, 0.30 mL/min, TFA pH 2
[3] = Circular dichroism, helical structure; format: physicochemical; details: for [θ]222, aqueous pH 7 / [θ]222, 50% TFE: CD, 222 nm; for [θ]222, aqueous pH 7 / [θ]222, 50% TFE / % helix, aqueous pH 7: 25 °C; for [θ]222, aqueous pH 7: 100 mM KCl, 50 mM Na2HPO4/NaH2PO4, pH 7.0; for [θ]222, 50% TFE: pH 7.0 buffer containing 50% TFE; for % helix induced: increase in molar ellipticity (as a percentage) in the presence of 50% TFE; for % helix, aqueous pH 7: relative to the molar ellipticity of the peptide in 50% TFE

Row | SMILES | HC50 fold improvement [1] | HC50 [1] [µg/mL] | Tp [2] [°C] | [θ]222, aqueous pH 7 [3] | [θ]222, 50% TFE [3] | % helix induced [3] [%] | % helix, aqueous pH 7 [3] [%]
1 | CC(=O)N[C@H](CCCCN)C(=O)N[C@H](CC(C)C)C(=O)N[C@@H](CCN)C(=O)N[C@H](CO)C(=O)N[C@H](CC(C)C)C(=O)N[C@H](CC(C)C)C(=O)N[C@@H](CCN)C(=O)N[C@@H](C(=O)N[C@H](CC(C)C)C(=O)N[C@H](CO)C(=O)N[C@@H](CCN)C(=O)N[C@H](C)C(=O)N[C@H](CCCCN)C(=O)N[C@H](C)C(=O)N[C@H](C)C(=O)N[C@H](CCCCN)C(=O)N[C@H](CC(C)C)C(=O)N[C@@H](CCN)C(=O)N[C@@H](C(=O)N[C@H](CC(C)C)C(=O)N[C@H](CC(C)C)C(=O)N[C@@H](CCN)C(=O)N[C@H](C)C(=O)N[C@H](CC(C)C)C(=O)N[C@H](CO)C(=O)N[C@H](CO)C(N)=O)[C@H](C)O)[C@H](C)O [D102(Lys^1Ser^26-5 Dab-1)] (Ac-[dK][dL][Dab][dS][dL][dL][Dab][dT][dL][dS][Dab][dA][dK][dA][dA][dK][dL][Dab][dT][dL][dL][Dab][dA][dL][dS][dS]-NH2) | >177 | >2000 | – | – | – | – | –
2 | CC(=O)N[C@H](CCCCN)C(=O)N[C@H](CC(C)C)C(=O)N[C@@H](CCN)C(=O)N[C@H](CO)C(=O)N[C@H](CC(C)C)C(=O)N[C@H](CC(C)C)C(=O)N[C@@H](CCN)C(=O)N[C@@H](C(=O)N[C@H](CC(C)C)C(=O)N[C@H](CO)C(=O)N[C@@H](CCN)C(=O)N[C@H](C)C(=O)N[C@H](CCCCN)C(=O)N[C@H](C)C(=O)N[C@H](C)C(=O)N[C@H](CCCCN)C(=O)N[C@H](CC(C)C)C(=O)N[C@@H](CCN)C(=O)N[C@@H](C(=O)N[C@H](CC(C)C)C(=O)N[C@H](CC(C)C)C(=O)N[C@@H](CCN)C(=O)N[C@H](C)C(=O)N[C@H](CC(C)C)C(=O)N[C@H](CO)C(=O)N[C@@H](CCN)C(N)=O)[C@H](C)O)[C@H](C)O [D86(Lys^1-6 Dab-1)] (Ac-[dK][dL][Dab][dS][dL][dL][Dab][dT][dL][dS][Dab][dA][dK][dA][dA][dK][dL][Dab][dT][dL][dL][Dab][dA][dL][dS][Dab]-NH2) | >186 | >2000 | 5.0 | 1769 mdeg cm^2/(dmol × res) | 27923 mdeg cm^2/(dmol × res) | 94 | 6
3 | CC(=O)N[C@H](CCCCN)C(=O)N[C@H](CC(C)C)C(=O)N[C@@H](CN)C(=O)N[C@H](CO)C(=O)N[C@H](CC(C)C)C(=O)N[C@H](CC(C)C)C(=O)N[C@@H](CN)C(=O)N[C@@H](C(=O)N[C@H](CC(C)C)C(=O)N[C@H](CO)C(=O)N[C@@H](CN)C(=O)N[C@H](C)C(=O)N[C@H](C)C(=O)N[C@H](C)C(=O)N[C@H](C)C(=O)N[C@H](C)C(=O)N[C@H](CC(C)C)C(=O)N[C@@H](CN)C(=O)N[C@@H](C(=O)N[C@H](CC(C)C)C(=O)N[C@H](CC(C)C)C(=O)N[C@@H](CN)C(=O)N[C@H](C)C(=O)N[C@H](CC(C)C)C(=O)N[C@H](CO)C(=O)N[C@@H](CN)C(N)=O)[C@H](C)O)[C@H](C)O [D105(K13A/K16A)-(Lys^1-6 Dap-1)] (Ac-[dK][dL][Dap][dS][dL][dL][Dap][dT][dL][dS][Dap][dA][dA][dA][dA][dA][dL][Dap][dT][dL][dL][Dap][dA][dL][dS][Dap]-NH2) | – | – | 39.0 | 9577 mdeg cm^2/(dmol × res) | 18038 mdeg cm^2/(dmol × res) | 47 | 53
4 | CC(=O)N[C@H](CCCCN)C(=O)N[C@H](CC(C)C)C(=O)N[C@@H](CCN)C(=O)N[C@H](CO)C(=O)N[C@H](CC(C)C)C(=O)N[C@H](CC(C)C)C(=O)N[C@@H](CCN)C(=O)N[C@@H](C(=O)N[C@H](CC(C)C)C(=O)N[C@H](CO)C(=O)N[C@@H](CCN)C(=O)N[C@H](C)C(=O)N[C@H](C)C(=O)N[C@H](C)C(=O)N[C@H](C)C(=O)N[C@H](C)C(=O)N[C@H](CC(C)C)C(=O)N[C@@H](CCN)C(=O)N[C@@H](C(=O)N[C@H](CC(C)C)C(=O)N[C@H](CC(C)C)C(=O)N[C@@H](CCN)C(=O)N[C@H](C)C(=O)N[C@H](CC(C)C)C(=O)N[C@H](CO)C(=O)N[C@@H](CCN)C(N)=O)[C@H](C)O)[C@H](C)O [D86(K13A/K16A)-(Lys^1-6 Dab-1)] (Ac-[dK][dL][Dab][dS][dL][dL][Dab][dT][dL][dS][Dab][dA][dA][dA][dA][dA][dL][Dab][dT][dL][dL][Dab][dA][dL][dS][Dab]-NH2) | – | – | 31.0 | 2308 mdeg cm^2/(dmol × res) | 18731 mdeg cm^2/(dmol × res) | 88 | 12
5 | CC(=O)N[C@H](CCCCN)C(=O)N[C@H](CC(C)C)C(=O)N[C@@H](CN)C(=O)N[C@H](CO)C(=O)N[C@H](CC(C)C)C(=O)N[C@H](CC(C)C)C(=O)N[C@@H](CN)C(=O)N[C@@H](C(=O)N[C@H](CC(C)C)C(=O)N[C@H](CO)C(=O)N[C@@H](CN)C(=O)N[C@H](C)C(=O)N[C@H](CCCCN)C(=O)N[C@H](C)C(=O)N[C@H](C)C(=O)N[C@H](CCCCN)C(=O)N[C@H](CC(C)C)C(=O)N[C@@H](CN)C(=O)N[C@@H](C(=O)N[C@H](CC(C)C)C(=O)N[C@H](CC(C)C)C(=O)N[C@@H](CN)C(=O)N[C@H](C)C(=O)N[C@H](CC(C)C)C(=O)N[C@H](CO)C(=O)N[C@@H](CN)C(N)=O)[C@H](C)O)[C@H](C)O [D105(Lys^1-6 Dap-1)] (Ac-[dK][dL][Dap][dS][dL][dL][Dap][dT][dL][dS][Dap][dA][dK][dA][dA][dK][dL][Dap][dT][dL][dL][Dap][dA][dL][dS][Dap]-NH2) | >287 | >3000 | 16.9 | 5961 mdeg cm^2/(dmol × res) | 24192 mdeg cm^2/(dmol × res) | 75 | 25
